Results taken from patent US20260042764A1, “COMPOSITIONS AND METHODS FOR INHIBITION OF KRAS” (TheRas, Inc., priority 2022, published 2026).

Biological target: T1, Avi-KRAS G12V (2-169) GTP/RAF1 RBD-3xFLAG (51-131) (Homo sapiens, UniProt P01116, G12V)
T1 construct: Avi-KRAS G12V (2-169)
Assay: Raf1-KRAS G12V-GTP disruption HTRF assay (Biological Example 3)
Format: binding
Details: KRAS G12V, GTP-loaded
How it was run: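 50 nM Avi-KRAS (2-169) GTP/RAF1 RBD complex; 75 nM RBD-Avi; pH 7.5 Tris buffer, 10% DMSO; cpd 30 μM top, 3x, 10 pts; 1 h RT, 700 rpm; HTRF, % of DMSO.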

T1 sequence (P01116 2-169 isoform P01116-2 G12V): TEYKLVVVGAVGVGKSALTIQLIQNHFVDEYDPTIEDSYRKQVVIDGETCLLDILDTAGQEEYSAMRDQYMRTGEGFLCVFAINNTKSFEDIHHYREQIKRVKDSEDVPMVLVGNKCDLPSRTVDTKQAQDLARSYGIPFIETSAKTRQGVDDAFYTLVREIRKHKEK

Row | IC50 [nM] | Compound
1 | 100 to 1000 | CCN(c1nc(OC[C@@]23CCCN2C[C@H](F)C3)nc2c(F)c(-c3ccc(F)c4sc(N)c(C#N)c34)c(C(F)(F)F)cc12)[C@@H]1CC(=O)N(C)C1 [Compound 520]
2 | 100 to 1000 | CCN(c1nc(OC[C@@]23CCCN2C[C@H](F)C3)nc2c(F)c(-c3ccc(F)c4sc(N)c(C#N)c34)c(C(F)(F)F)cc12)[C@@H]1C[C@H]2CCC(=O)N2C1 (atropisomer, axis not shown) [Compound 532]
3 | 100 to 1000 | CCN(c1nc(OC[C@@]23CCCN2C[C@H](F)C3)nc2c(F)c(-c3ccc(F)c4sc(N)c(C#N)c34)c(C(F)(F)F)cc12)[C@@H]1C[C@@H](C)N(C(C)=O)C1 (atropisomer, axis not shown) [Compound 527]
4 | 100 to 1000 | CCN(c1nc(OC[C@@]23CCCN2C[C@H](F)C3)nc2c(F)c(-c3ccc(F)c4sc(N)c(C#N)c34)c(C(F)(F)F)cc12)[C@H]1CCN(C(=O)c2ccon2)C1 (atropisomer, axis not shown) [Compound 554]
5 | 100 to 1000 | CN(C)C(=O)c1nn2c(c1Cl)CN(c1nc(OC[C@@]34CCCN3C[C@H](F)C4)nc3c(F)c(-c4ccc(F)c5sc(N)c(C#N)c45)c(C(F)(F)F)cc13)CC2 [Compound 517]
6 | ≤ 100 | CCN(c1nc(OC[C@@]23CCCN2C[C@H](F)C3)nc2c(F)c(-c3ccc(F)c4sc(N)c(C#N)c34)c(C(F)(F)F)cc12)[C@H]1C[C@H](C)N(C(=O)COC)C1 (atropisomer, axis not shown) [Compound 538]
7 | ≤ 100 | CCN1C[C@@H](N(CC)c2nc(OC[C@@]34CCCN3C[C@H](F)C4)nc3c(F)c(-c4ccc(F)c5sc(N)c(C#N)c45)c(C(F)(F)F)cc23)CC1=O [Compound 529, 2-amino-4-(4-(ethyl((S)-1-ethyl-5-oxopyrrolidin-3-yl)amino)-8-fluoro-2-(((2R,7aS)-2-fluorotetrahydro-1H-pyrrolizin-7a(5H)-yl)methoxy)-6-(trifluoromethyl)quinazolin-7-yl)-7-fluorobenzo[b]thiophene-3-carbonitrile]
8 | 100 to 1000 | CCN(c1nc(OC[C@@]23CCCN2C[C@H](F)C3)nc2c(F)c(-c3ccc(F)c4sc(N)c(C#N)c34)c(C(F)(F)F)cc12)C1C[C@@H](C)N(C(=O)C2CC2)C1 (some centres unmarked) [Compound 516]
9 | 100 to 1000 | CCN(c1nc(OC[C@@]23CCCN2C[C@H](F)C3)nc2c(F)c(-c3ccc(F)c4sc(N)c(C#N)c34)c(C(F)(F)F)cc12)[C@H]1C[C@H](C)N(C(=O)C2COC2)C1 (atropisomer, axis not shown) [Compound 539]
10 | 1000 to 10000 | CCN(c1nc(OC[C@@]23CCCN2C[C@H](F)C3)nc2c(F)c(-c3ccc(F)c4sc(N)c(C#N)c34)c(C(F)(F)F)cc12)[C@@H]1C[C@@H]2CCC(=O)N2C1 [Compound 511]
11 | 100 to 1000 | CCN(c1nc(OC[C@@]23CCCN2C[C@H](F)C3)nc2c(F)c(-c3ccc(F)c4sc(N)c(C#N)c34)c(C(F)(F)F)cc12)[C@@H]1C[C@H](C)N(C(C)=O)C1 (atropisomer, axis not shown) [Compound 534]
12 | 1000 to 10000 | CN(C)C(=O)[C@@H]1CC[C@@H](N(C)c2nc(OC[C@@]34CCCN3C[C@H](F)C4)nc3c(F)c(-c4ccc(F)c5sc(N)c(C#N)c45)c(C(F)(F)F)cc23)C1 (atropisomer, axis not shown) [Compound 512]
13 | 100 to 1000 | CCC(=O)N1C[C@H](N(CC)c2nc(OC[C@@]34CCCN3C[C@H](F)C4)nc3c(F)c(-c4ccc(F)c5sc(N)c(C#N)c45)c(C(F)(F)F)cc23)C[C@@H]1C (atropisomer, axis not shown) [Compound 533]
14 | ≤ 100 | CCN(c1nc(OC[C@@]23CCCN2C[C@H](F)C3)nc2c(F)c(-c3ccc(F)c4sc(N)c(C#N)c34)c(C(F)(F)F)cc12)[C@@H]1CC(=O)N(C2CC2)C1 [Compound 537]
